Laboratory results published in paper PMC4489529 (Antiviral chemistry & chemotherapy, 2014).
Like-named read-outs stand apart in the source and are kept apart here.

Columns and labels:
[1] = buffer
[2] = test system: Caco-2 cells
[3] = test system: U373-MAGI-CXCR4CEM cells; conditions: at 5 μM, data not shown
[4] = in vitro; conditions: human, Caco-2, pH 7.4
[5] = pH 7.4, reported for the parent compound; cited from earlier work
[6] = test system: Caco-2 cells; assay: Caco-2 assay to assess permeability; conditions: divalerate prodrug versus parent drug

Half-life at pH 2.0 [1] [h]	Half-life at pH 4.65 [1] [h]	Half-life at pH 7.4 [1] [h]	Permeability ([2]; Caco-2) [cm/s]	Permeability of prodrug relative to parent compound ([2]; Caco-2)	Permeability ([2]; Caco-2, pH 7.4)	recovery at 60 min, 10 μM [4] [%]	Permeability of prodrug relative to parent compound [6] [fold]	SMILES	Decrease in cell proliferation [3]	Half-life at pH 7.4 [5] [h]
17	36	28	3.2e-06	fourfold higher	3.2 10^−6 cm/s			CCCCC(=O)OC[C@H]1O[C@@H](n2cnc(N)nc2=O)C[C@@H]1OC(=O)CCCC [Decitabine divalerate, decitabine divalerate]	less than 5%	
						91		Nc1ncn([C@H]2C[C@H](O)[C@@H](CO)O2)c(=O)n1 [Decitabine, 5-aza-2′-deoxycytidine]		12.9 ±0.9
85	247	135	2.1e-06		2.1 10^−6 cm/s		4.2	CCCCC(=O)OC[C@H]1O[C@@H](n2ccc(N)nc2=O)C(F)(F)[C@@H]1OC(=O)CCCC [Gemcitabine divalerate, gemcitabine divalerate]		
						111		Nc1ccn([C@@H]2O[C@H](CO)[C@@H](O)C2(F)F)c(=O)n1 [Gemcitabine, 2′,2′-difluoro-2′-deoxycytidine]		
